Measurements reported in US11014915B2, “Selective estrogen receptor degrader” (SUN PHARMA ADVANCED RESEARCH COMPANY LIMITED, priority 2019, dated 2021).

Columns and labels:
[1] = biological target: T1, ER-α in MCF-7 cells harboring ER wild type (Homo sapiens, UniProt P03372); assay: ER-α degradation (SERD) assay, MCF-7 wild type; type: cell-based; details: for % of ER-α remaining at 1 nM / DC50: MCF-7 Wt, 4 days; for % of ER-α remaining at 1 nM: western blot, vehicle control as 100%; for DC50: read-out: ER-α degradation assay Wt IC50
T1 construct: evaluated in MCF-7 cells harboring ER wild type; endogenous in cells; host or cells: MCF-7
T1 sequence (P03372 1-595): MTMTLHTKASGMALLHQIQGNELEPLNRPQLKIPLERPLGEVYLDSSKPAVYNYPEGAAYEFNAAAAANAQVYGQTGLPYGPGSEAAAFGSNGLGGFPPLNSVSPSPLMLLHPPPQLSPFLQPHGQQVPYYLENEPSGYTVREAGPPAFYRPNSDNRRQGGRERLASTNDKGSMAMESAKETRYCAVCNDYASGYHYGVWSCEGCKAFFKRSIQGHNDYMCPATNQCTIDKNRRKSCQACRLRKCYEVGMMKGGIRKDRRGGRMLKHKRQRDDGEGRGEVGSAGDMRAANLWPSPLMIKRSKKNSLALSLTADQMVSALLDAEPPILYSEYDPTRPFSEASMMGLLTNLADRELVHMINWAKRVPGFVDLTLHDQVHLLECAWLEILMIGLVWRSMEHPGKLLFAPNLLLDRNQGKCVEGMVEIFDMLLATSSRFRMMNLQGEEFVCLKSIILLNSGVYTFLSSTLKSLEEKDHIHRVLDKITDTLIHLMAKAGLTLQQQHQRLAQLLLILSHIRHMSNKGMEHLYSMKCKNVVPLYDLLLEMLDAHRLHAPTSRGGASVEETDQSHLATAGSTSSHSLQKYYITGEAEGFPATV
Protocol: Selective Estrogen Receptor Degradation (SERD) Assay:
The SERD activity for the test compounds was evaluated in MCF-7 cells harboring ER wild type, and MCF-7 cells harboring mutant ER (WT/D538G and WT/Y537S). Briefly, cells were plated in phenol red free RPMI1640 medium supplemented with 5% charcoal stripped fetal bovine serum. The seeding density was 40000 cells/well for MCF-7 WT and MCF-7 D538G and 50000 cells/well MCF-7 Y537S in a 48-well plate. Following overnight incubation, the cells were treated with varying concentrations of test compounds (final concentration: 1000 nM to 0.01 nM, 0.1% DMSO) for 4 days. The cells were lysed using PBS supplemented with 1 mM EDTA, 0.5% Triton X-100, 5 mM NaF, 6 M urea, and 1× Protease inhibitor cocktail. The lysate was analyzed for ER alpha protein using western blot. For the western blot, the cell lysate (12.5-40 μg total protein) was resolved on a 10% SDS PAGE and transferred onto a PVDF membrane. The blots were blocked using 5% skim milk powder in 0.1% PBS-T for 1 hour at room temperature, followed by co-incubation with rabbit anti-human β-actin antibody and rabbit anti-human ERα antibody for 2 hours at room temperature. The blots were subsequently probed with anti-rabbit IgG-HRP conjugate as secondary antibody for 1 hour at room temperature. The blots were developed by using West Pico Super Signal Chemiluminescence substrate and the bands were processed for densitometry analysis using Image Lab software (BioRad version 6.0.0). ERα band intensity was normalized to that housekeeping protein for respective samples. The % ER remaining was calculated by normalizing against the vehicle control (as 100%).

[2] = system: MCF-7 cells harboring ER wild type (Wt); assay: MCF-7 cell growth inhibition assay, wild type; type: cell-based, human; details: for IC50: Homo sapiens, MCF7, 168 h, MCF-7 Wt, seven-day incubation
Protocol: MCF-7 Cell Growth Inhibition Assay:
The anti-proliferative activity of the test compounds were evaluated in a growth inhibition assay. Briefly, MCF-7 cells harboring ER wild type (Wt), and MCF-7 cells harboring mutant ER (WT/D538G and WT/Y537S) were seeded at a density of 1000 cells/well in 96-well plate in phenol red free RPMI1640 medium supplemented with 10% charcoal stripped fetal bovine serum. The cells were incubated overnight at 37° C. and 5% CO2 followed by the addition of varying concentrations of the test compounds in DMSO. Final concentration of DMSO in the well was 0.5%. Following a seven-day incubation of cells with the test compounds, cell viability was assessed using a Prestoblue™ reagent. The percent inhibition of cell proliferation was calculated by normalizing the cell viability using a vehicle control as 0% inhibition of proliferation.

[3] = system: subcutaneous MCF7-Y537S xenografts; assay: In-vivo efficacy in MCF7-Y537S mice xenografts; set-up: species or system female athymic nude mice
Protocol: In-Vivo Efficacy of Compound of Formula I and Compound of Formula Ia: […]
The efficacy of the compound of Formula I and the compound of Formula Ia were evaluated in female athymic nude mice harboring subcutaneous MCF7-Y537S xenografts. Dose formulations of the compound of Formula I and the compound of Formula Ia were prepared in Tween 80 (0.4% v/v of the total volume of suspension) in 0.5% w/v carboxymethylcellulose (CMC) and administered once daily orally for 28 days. Two perpendicular diameters of tumor were measured with digital Vernier caliper. Tumor volume (V) was calculated using the following equation: V=(a^2×b)/2, where “a” is the width of the tumor (small diameter), and “b” the length (large diameter), both in millimeters. Tumors were monitored twice weekly and compared with a vehicle treated group.

SMILES	% of ER-α remaining at 1 nM [1]	DC50 [1]	IC50 [2]	Potency of Formula Ia relative to Formula Ib in ER-α degradation ([1]; wild type)	Potency of Formula Ia relative to Formula Ib in MCF-7 growth inhibition assay ([2]; wild type)	% Tumor growth inhibition compared to vehicle group after 28 days ([3]; 50 mg/kg, p.o., 28 days, once daily)	Tumor growth compared to the vehicle group (in words) ([3]; once daily orally for 28 days)
CC1=C(c2cc(F)cc(F)c2)[C@@H](c2ccc(/C=C/CN3CC(CF)C3)cc2)Oc2cc(O)ccc21 [Formula Ib, (2R)-3-(3,5-difluorophenyl)-2-[4-[(E)-3-[3-(fluoromethyl)azetidin-1-yl]prop-1-enyl]phenyl]-4-methyl-2H-chromen-7-ol]	81.5%	10.2 nM	69.9 nM	–	–	–	–
CC1=C(c2cc(F)cc(F)c2)[C@H](c2ccc(/C=C/CN3CC(CF)C3)cc2)Oc2cc(O)ccc21 [Formula Ia, (2S)-3-(3,5-difluorophenyl)-2-[4-[(E)-3-[3-(fluoromethyl)azetidin-1-yl]prop-1-enyl]phenyl]-4-methyl-2H-chromen-7-ol]	16.3%	0.3 nM	0.3 nM	about 34 times	about 233 times	56%	significant reduction in the tumor growth
